# According to patent US20210293825A1, “METHODS FOR PRECISION THERAPEUTIC TARGETING OF HUMAN CANCER CELL MOTILITY AND KITS THEREOF” (UNITED STATES GOVERNMENT AS REPRESENTED BY THE DEPARTMENT …, priority 2018, published 2021):
# How the values were obtained:
# [1] = test system: 442 kinases, including 400 distinct parental kinases plus mutants; experiment: KINOMEscan assay (Ambit Biosciences); assay type: binding; conditions: tested at 10 μM
# Description: Kinase assay system #1. The KINOMEscan™ assay (Ambit Biosciences). This assay evaluates 442 kinases, including 400 distinct parental kinases plus mutants known to alter activity or responsiveness. It does so in the context of an assay that measures the ability of putative inhibitors to inhibit binding of bacterial purified kinase to immobilized phospho-acceptor protein substrate. This approach has been successfully to identify kinase interactions of several small molecule kinase inhibitors (Fabian, M. A. et al., Nat Biotechnol 23, 329-36 (2005); and Karaman, M. W. et al., Nat Biotechnol 26, 127-32 (2008)). KBU2046 was tested at 10 μM. […] There were two initial false positives (for a false positive rate of 0.4%), that were subsequently found to be negative in a dedicated follow up analysis. Specific and important negative findings include MKK4, p38 MAPK (α, β, γ and δ isoforms) and RAF1. Conclusions: there was no evidence that KBU2046 inhibits kinase function by competing for phospho-acceptor binding.
# panel of 284 kinases = experiment: KinaseProfiler radiometric assay platform (Millipore); assay type: biochemical; conditions: competition with ATP
# Description: (§1) Kinase assay system #3. KinaseProfiler™ and PhosphataseProfiler™ assay platforms (Millipore). This platform is radiometric-based (considered gold standard). It measures competition with respect to ATP for kinases and substrate protein for phosphatases. Most proteins were expressed via an insect-based system, and it evaluates a panel of 284 kinases and 20 phosphatases. […] Important negative findings include: MKK4, MKK6, p38 MAPK, MAPKAPK2, RAF1, ERK, MEK1, JNK1, 2 and 3, and numerous other MAPK cascade-associated kinases.
# 20 phosphatases = experiment: PhosphataseProfiler assay platform (Millipore); assay type: biochemical; conditions: competition with substrate protein
# Description: as §1
# PC3-M cells = experiment: Three day MTT cell growth inhibition assay, PC3-M cells; assay type: cell-based, human
# human prostate cells = experiment: Three day cell growth inhibition, human prostate cells; assay type: cell-based; conditions: 3 days growth inhibition
# Description: FIG. 1a is a schematic flow of probe synthesis and development strategy. […] Values are mean±SEM of a single experiment in replicates of N=4, with similar findings in multiple separate experiments (also N=4). […] Values are mean±SEM of a single experiment in replicates of N=24, with similar findings in a separate experiment (also N=24). *Denotes Student's t test P value <0.05, compared to controls. […] Values are mean±SEM from N>2 separate experiments, each in replicates of N=3. […] Values are the mean±SD number of total, CFU-GM, CFU-GEMM or BFU-E colonies at 14 days after treatment with KBU2046, from a single experiment in replicates of N=2. […] Values are the mean±SD of a single experiment, with similar results seen in a separate experiment, both in replicates of N=2.
# Assays were in replicates of N=3, and were repeated.
# [2] = molecular target: T1, phosphorylation of HSP90β (Homo sapiens, UniProt P08238+Q16543); experiment: HSP90β/CDC37 heterocomplex in vitro kinase assay with SGK3 and MAP3K6; assay type: biochemical
# T1 construct: MAP3K6: Abnova SGK3: #PV3859; MAP3K6: #P5592; host or cells: E. coli for HSP90β and CDC37
# Method: HEK293T cells were transfected with 1 of 420 different protein kinases, treated with 10 μM KBU2046 (N=5 replicates) or vehicle control (N=5) for three days, and LUMIER assays performed. The N=17 kinases that gave significant findings (Student's t-test <0.05) in the same direction in each of two separate experiments are depicted. Each separate treatment and kinase condition in each of two separate experiments was conducted in replicates of N=5. […] FIGS. 6c and 6d show the results of the wound healing assay. PC3 cells were transfected with siRNA targeting RAF1 (si-Raf1) or non-targeting siRNA (si-control), treated with KBU2046 or vehicle as above, and RAF1 protein measured by Western blot (c) and effects upon wound healing measured (d). […] Purified recombinant HSP90β, CDC37, and RAF1 were combined with KBU2046, as indicated, incubated in an in vitro kinase assay for the indicated times, and Western blot for RAF1-Ser^338 phosphorylation performed. FIGS. 6f and 6g show the effect on HSP90β/CDC37 heterocomplex formation and function in vitro. Purified recombinant HSP90β, CDC37, RAF1, SGK3 or MAP3K6 were combined and treated with KBU2046 or vehicle control, as indicated, incubated in an in vitro kinase assay for the indicated times, and Western blot performed, as denoted. Experiments were repeated at separate times at least once, with similar results. […]
# PC3 or PC3M cells = experiment: Scratch wound healing assay with siRNA knockdown; assay type: cell-based, human
# Method: HEK293T cells were transfected with 1 of 420 different protein kinases, treated with 10 μM KBU2046 (N=5 replicates) or vehicle control (N=5) for three days, and LUMIER assays performed. The N=17 kinases that gave significant findings (Student's t-test <0.05) in the same direction in each of two separate experiments are depicted. Each separate treatment and kinase condition in each of two separate experiments was conducted in replicates of N=5. […] FIGS. 6c and 6d show the results of the wound healing assay. PC3 cells were transfected with siRNA targeting RAF1 (si-Raf1) or non-targeting siRNA (si-control), treated with KBU2046 or vehicle as above, and RAF1 protein measured by Western blot (c) and effects upon wound healing measured (d). […] Purified recombinant HSP90β, CDC37, and RAF1 were combined with KBU2046, as indicated, incubated in an in vitro kinase assay for the indicated times, and Western blot for RAF1-Ser^338 phosphorylation performed. FIGS. 6f and 6g show the effect on HSP90β/CDC37 heterocomplex formation and function in vitro. Purified recombinant HSP90β, CDC37, RAF1, SGK3 or MAP3K6 were combined and treated with KBU2046 or vehicle control, as indicated, incubated in an in vitro kinase assay for the indicated times, and Western blot performed, as denoted. Experiments were repeated at separate times at least once, with similar results.
# FIGS. 24b-d show the results of the wound healing assay. PC3 or PC3M cells were treated+/−KBU2046 and with siRNA to the denoted gene, or with non-targeting control siRNA (NT), and effects upon transcript (b) or protein expression (c) measured by qRT/PCR or Western blot, respectively. For qRT/PCR, values are expressed as the target gene/GAPDH ratio, normalized to that of NT/−KBU2046 cells. Under the same conditions, wound healing assays were performed (d).
# Scratch Wound Assays. Cells were transfected with the indicated si-RNA constructs per manufacture protocol (GE-Dharmacon), cultured 48 hrs with 10 μM KBU2046 or vehicle, and scratch wound assay performed as described (Xiao, X. et al., Oncotarget 6, 3225-39 (2015)). […]
# T1 sequence (P08238 2-724): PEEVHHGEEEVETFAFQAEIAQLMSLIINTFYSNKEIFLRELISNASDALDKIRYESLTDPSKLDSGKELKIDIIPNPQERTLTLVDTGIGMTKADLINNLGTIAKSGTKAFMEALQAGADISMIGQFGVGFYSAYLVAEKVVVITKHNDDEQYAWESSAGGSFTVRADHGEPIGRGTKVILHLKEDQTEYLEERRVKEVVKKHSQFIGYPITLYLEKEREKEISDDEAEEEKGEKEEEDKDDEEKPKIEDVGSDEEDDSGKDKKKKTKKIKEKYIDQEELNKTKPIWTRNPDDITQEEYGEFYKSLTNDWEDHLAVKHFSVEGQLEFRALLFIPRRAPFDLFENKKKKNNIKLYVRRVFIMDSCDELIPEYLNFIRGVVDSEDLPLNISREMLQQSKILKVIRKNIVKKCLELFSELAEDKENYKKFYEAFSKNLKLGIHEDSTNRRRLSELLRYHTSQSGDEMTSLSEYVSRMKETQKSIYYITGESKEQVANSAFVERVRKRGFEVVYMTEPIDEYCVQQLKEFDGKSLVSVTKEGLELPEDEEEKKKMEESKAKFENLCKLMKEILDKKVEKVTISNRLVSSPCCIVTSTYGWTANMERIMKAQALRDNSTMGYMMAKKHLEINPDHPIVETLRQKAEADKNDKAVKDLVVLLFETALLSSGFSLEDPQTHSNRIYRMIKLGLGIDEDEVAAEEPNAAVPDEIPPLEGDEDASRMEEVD
# T1 sequence (Q16543 whole entry): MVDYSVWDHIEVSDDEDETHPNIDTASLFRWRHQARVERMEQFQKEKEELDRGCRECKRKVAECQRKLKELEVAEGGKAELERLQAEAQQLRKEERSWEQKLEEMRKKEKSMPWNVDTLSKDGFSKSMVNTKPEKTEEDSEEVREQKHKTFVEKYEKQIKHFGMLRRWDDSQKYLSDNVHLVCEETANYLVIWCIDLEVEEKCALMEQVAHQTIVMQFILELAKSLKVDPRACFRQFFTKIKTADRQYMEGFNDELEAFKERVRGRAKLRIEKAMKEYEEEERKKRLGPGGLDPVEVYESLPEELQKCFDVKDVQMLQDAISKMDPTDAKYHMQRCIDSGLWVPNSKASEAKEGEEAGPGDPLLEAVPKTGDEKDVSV
compound,measurement,setting,value
"O=C1c2ccccc2OCC1c1ccc(F)cc1 (racemic) [KBU2046, (±)-3(4-fluorophenyl)chroman-4-one]",inhibition of kinase binding to immobilized phospho-acceptor substrate,[1],completely negative
same,inhibition of kinase activity,panel of 284 kinases,no evidence that KBU2046 inhibits kinase activity
same,inhibition of phosphatase activity,20 phosphatases,No evidence supports inhibition of phosphatase activity
same,cell growth inhibition,PC3-M cells,no growth inhibitory effects
same,toxicity to human prostate cells,human prostate cells,not toxic
same,SGK3-mediated phosphorylation of HSP90β,[2]; MAP3K6 added,also decreases in the presence of KBU2046
same,SGK3-mediated phosphorylation of HSP90β,[2]; SGK3 present,phosphorylation was further increased
same,efficacy on motility,PC3 or PC3M cells; SGK3 knockdown,still retained efficacy
same,RAF1 protein expression levels,"PC3 or PC3M cells; Western blot, cells",did not alter RAF1 protein expression levels
same,efficacy on motility,PC3 or PC3M cells; knockdown of RAF1 or of RIPK1,mitigated KBU2046 efficacy
